Experimental data from patent publication US12139488B2, “Pyrido[3,2-d]pyrimidine compounds uses thereof for treating a proliferative disease” (Universite de Montreal, priority 2021, dated 2024).

Experiments:
[1] = tested on: pERK in RAS-mutant cancer cell lines; experiment: Phospho-ERK inhibition (AlphaLISA), panel of RAS-mutant cancer cell lines; assay type: cell-based, human; conditions: in 10 of the 13 RAS-mutant cell lines tested
Description: All cancer cell lines (A375, A101D, A2058, RKO, HT29 SK-MEL 30, IPC298, HepG2, HCT-116, Lovo, SWV620, SW480, NCI-H358, NCI-H2122, Calu-6, NCIH2087, NCIH1755, NCIH1666 and Mewo) were obtained from ATCC and cultured in RPMI-1640 medium (Gibco) supplemented with 5% heat inactivated fetal bovine serum (FBS, Wisent) at 37° C. under 5% CO2. Cells were maintained in T175 flasks (Greiner). They were passaged by removing the culture medium, washing once in 10 mL of room temperature Phosphate Buffered Saline (PBS; Wisent) and incubating at 37° C. with 2 mL of 0.05% Trypsin (Thermo-Fisher). […]
After treatment, media was removed and cells were lysed in 50 μL of 1× AlphaScreen Ultra Lysis Buffer (Perkin Elmer). […] After completion of the reactions, the signals were recorded on an EnVision plate reader (Perkin Elmer) using built in AlphaLISA® settings.
The effect of each compound dilution on the pERK signal was expressed in % inhibition and calculated as follows. […]
The ability of each compound to inhibit pERK signal was expressed as an IC50 value obtained by plotting the inhibition values for each data point of a dilution series and fitting the obtained curves using a log(agonist) versus response-variable slope (four parameters) function using GraphPadPrism (V7.0) or Dotmatics Screening Ultra platform. […]

BRAF = BRAF (Homo sapiens (Human), UniProt P15056); experiment: BRAF kinase activity assay (ADP-Glo); assay type: biochemical; conditions: read-out: Kinase IC50 (nM) BRAF
How it was run: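 Compound was tested at nine concentrations (0.01–100 nM, 0.05% DMSO final) against BRAF or CRAF phosphorylating MEK1 with ATP, for 2 h at 30 °C. ADP formed was read by ADP-Glo luminescence, and % inhibition was fitted with a four-parameter log(agonist) model to obtain IC50.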

[2] = Body weight during TGI experiments; assay type: in vivo, NU(NCr)-Foxn1nu female mice; conditions: repeated oral treatment (QD or BID), Example 99 sodium salt suspension
Description: NU(NCr)-Foxn1nu mice were inoculated subcutaneously at the right flank with 1×10^6 (HCT-116 or A375) or 3×10^6 (A101D, A2058, RKO, HT29 SK-MEL 30, Calu-6, HepG2, Lovo, NCI-H2122, NCIH1666 and NCIH1755) tumour cells in 0.2 mL of the 50:50 PBS:Matrigel mixture for tumour development. Tumour measurements were taken with an electronic microcalliper three times weekly. In addition, body weights were recorded at these times. Tumor volume was calculated, taking length to be the longest diameter across the tumor and width to be the corresponding perpendicular diameter using the following formula: ((length×width×[…])/2).
For tumor growth inhibition (TGI) experiments, the treatment was performed when mean tumour size reached approximately 200 mm^3, with at least 7 mice for each time point randomized to balance the average tumour size for each treatment group. Mice were administered orally (QD or BID) with a suspension of Example 99 sodium salt in a formulation consisting of 1% NMP, 0.3% Tween-80, pH 9.1. Example 99: Na+ powder was directly resuspended in the complete blank formulation. Dosing volume was 10 mL/kg, yielding the indicated doses (doses are in mg per kg or mpk). Tumours were measured with an electronic microcalliper three times weekly. In addition, body weights were recorded at these times. Tumor volume was calculated as described above. […]

Sequence of BRAF (P15056 whole entry): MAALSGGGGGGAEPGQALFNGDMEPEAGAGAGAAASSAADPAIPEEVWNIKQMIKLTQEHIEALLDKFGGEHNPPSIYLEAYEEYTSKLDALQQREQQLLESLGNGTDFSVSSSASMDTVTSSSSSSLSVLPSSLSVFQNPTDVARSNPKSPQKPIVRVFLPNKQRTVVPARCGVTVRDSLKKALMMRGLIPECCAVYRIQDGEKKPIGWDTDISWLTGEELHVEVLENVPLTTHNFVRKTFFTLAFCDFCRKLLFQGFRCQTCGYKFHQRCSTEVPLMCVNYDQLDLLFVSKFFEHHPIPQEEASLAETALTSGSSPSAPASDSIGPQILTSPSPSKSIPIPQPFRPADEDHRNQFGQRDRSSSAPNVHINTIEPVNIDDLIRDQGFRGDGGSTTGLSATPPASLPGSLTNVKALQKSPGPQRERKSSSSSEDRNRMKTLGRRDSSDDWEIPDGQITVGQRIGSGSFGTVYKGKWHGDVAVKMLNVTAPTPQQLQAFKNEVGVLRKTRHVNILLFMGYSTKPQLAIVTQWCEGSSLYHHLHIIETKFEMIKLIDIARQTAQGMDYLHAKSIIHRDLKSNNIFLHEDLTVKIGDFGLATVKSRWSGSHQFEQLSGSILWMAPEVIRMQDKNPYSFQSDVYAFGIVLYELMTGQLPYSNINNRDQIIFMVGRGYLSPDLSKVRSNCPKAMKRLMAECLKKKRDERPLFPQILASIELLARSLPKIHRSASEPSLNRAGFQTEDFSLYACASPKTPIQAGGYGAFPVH

Compound | YMIN of pERK IC50 curves [1] | IC50 (BRAF) | change in body weight compared to vehicle-treated animals [2]
Cc1ccc2c(Nc3cccc(Cl)c3F)nccc2c1NC(=O)c1csc2c(N)ncnc12 [Belvarafenib, reference compound] | < −30% |  | 
Nc1cccc2c1ncn2-c1ccc2ncnc(Nc3c(F)ccc(NS(=O)(=O)c4cccc(Cl)c4Cl)c3F)c2n1 [Example 99] |  | < 1 nM | did not result in any change in body weight
